Patent publication US20080249042A1, “All-Trans-Retinol: All-Trans-13,14-Dihydroretinol Saturase and Methods of Its Use” (UNIVERSITY OF WASHINGTON, priority 2004, published 2008)

Legend:
mouse RetSat [1] = biological target: T1, mouse RetSat (Mus musculus, UniProt Q64FW2); details: earlier report, Moise et al. 2004; cited from earlier work
T1 construct: expressed in transfected cells
T1 sequence (Q64FW2 26-609): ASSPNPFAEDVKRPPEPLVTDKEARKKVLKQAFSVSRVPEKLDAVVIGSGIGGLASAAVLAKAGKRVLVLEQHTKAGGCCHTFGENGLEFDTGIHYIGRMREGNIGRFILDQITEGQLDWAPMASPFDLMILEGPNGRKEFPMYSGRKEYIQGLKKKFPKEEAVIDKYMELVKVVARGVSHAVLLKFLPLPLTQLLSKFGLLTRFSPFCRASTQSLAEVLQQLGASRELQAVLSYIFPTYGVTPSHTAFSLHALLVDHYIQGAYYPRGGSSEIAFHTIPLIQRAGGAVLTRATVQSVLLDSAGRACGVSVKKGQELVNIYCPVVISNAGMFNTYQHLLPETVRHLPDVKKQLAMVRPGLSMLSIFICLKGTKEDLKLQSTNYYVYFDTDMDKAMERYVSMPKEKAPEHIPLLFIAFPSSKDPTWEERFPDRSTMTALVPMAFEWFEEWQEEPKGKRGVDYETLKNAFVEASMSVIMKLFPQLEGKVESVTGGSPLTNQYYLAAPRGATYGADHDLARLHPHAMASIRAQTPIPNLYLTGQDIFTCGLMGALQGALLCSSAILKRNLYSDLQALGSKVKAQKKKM

tomato CRTISO = biological target: T2, tomato CRTISO (Solanum lycopersicum, UniProt Q8S4R4); test: CRTISO activity in transfected HEKK cells; type: cell-based; details: CRTISO-expressing cells, overnight, in the dark
T2 construct: expressed in transfected cells
T2 sequence (Q8S4R4 with tags, fused parts or gaps): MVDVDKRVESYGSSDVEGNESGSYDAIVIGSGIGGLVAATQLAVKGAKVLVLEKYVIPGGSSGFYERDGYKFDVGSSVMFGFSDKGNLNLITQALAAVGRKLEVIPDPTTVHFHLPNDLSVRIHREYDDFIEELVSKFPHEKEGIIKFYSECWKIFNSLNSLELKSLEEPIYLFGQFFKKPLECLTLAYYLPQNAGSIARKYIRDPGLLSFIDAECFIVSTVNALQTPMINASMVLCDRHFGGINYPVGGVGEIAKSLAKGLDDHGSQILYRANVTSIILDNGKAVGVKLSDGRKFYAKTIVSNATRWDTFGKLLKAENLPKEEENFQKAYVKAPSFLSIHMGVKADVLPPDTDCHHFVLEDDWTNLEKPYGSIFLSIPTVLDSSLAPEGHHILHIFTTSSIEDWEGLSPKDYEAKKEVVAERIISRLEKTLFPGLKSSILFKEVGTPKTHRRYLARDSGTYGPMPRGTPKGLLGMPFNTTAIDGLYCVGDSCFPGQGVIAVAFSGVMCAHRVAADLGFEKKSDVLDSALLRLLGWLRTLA
Experimental: 7Z,9Z,9′Z,7′Z-Tetra-cis-tycopene purification and reverse-phase HPLC analysis of carotenoids. Carotenoid extraction and analysis were performed under dim red light. One gram from the fruit of a tangerine tomato was freeze-thawed three times and extracted with 2 ml PBS, 2 ml of ethanol, and 6 ml of hexane with the aid of a douncer. The organic phase was dried and resuspended in ethanol/tetrahydrofuran (9:1), and examined by reverse-phase HPLC System I (Prontosil, 200-3-C30, 3 μm, 4.6 mm×250 mm, Bischoff Chromatography, Leonberg, Germany) with a mobile phase of 75% tert-butyl methyl ether/25% methanol and a flow rate of 1 ml/min. More than 90% of the extract consisted of 7Z,9Z,9′Z,7′Z-tetra-cis-lycopene identified based on its published UV/VIS absorption spectrum in hexane with the following characteristics: shoulder at λ=417 nm, ε=90,000 M^−1cm^−1, λmax=437 nm, ε=105,000 M−1 cm^−1, shoulder at λ=461 nm ε=70,000 M^−1cm^−1. Bradford, Anal Biochem 72:248-254, 1976.
Enzyme assays of RetSat and CRTISO-catalyzed reactions. For enzyme assay, cells were seeded in six-well plates and expression of RetSat or CRTISO was induced with 1 μg/ml tetracycline 48 hr prior to analysis. […] For retinol and dihydroretinol analysis the methanol:water mixture was extracted with two volumes of hexane, then the organic phase was dried, resuspended in hexane, and analyzed by normal-phase HPLC. […]

mouse RetSat [2] = biological target: T1, mouse RetSat; test: Saturase activity in homogenized HEKK-RetSat cells; type: biochemical; details: membrane homogenate, 40 μM substrate, 1 hr
Experimental: Enzymatic assays for saturase activity in homogenized cells. Cells were homogenized with 15 mM Tris-HCl, pH 8.0, containing 10 mM dithiothreitol and 0.32 M sucrose. One aliquot of cells was boiled for 10 min at 95° C. as a negative control. Cell aliquots of 200 μl were supplemented with 1 mM ATP and 40 μM all-trans-retinol final concentrations. Some aliquots were also supplemented with 0.4 mM NADH or 0.4 mM NADPH to regenerate the redox state of the reaction. The cell homogenate was incubated with retinol substrate with shaking at 37° C. for 1 hr in the dark. This was followed by the extraction of retinoids with one volume of methanol and two volumes of hexane. The organic phase was dried and resuspended in hexane and then examined by normal-phase HPLC.

SMILES	Saturation by RetSat (mouse RetSat [1])	Conversion by CRTISO (substrate activity) (tomato CRTISO)	all-trans-13,14-dihydroretinol produced (mouse RetSat [2])
CC1=C(/C=C/C(C)=C/C=C/C(C)=C/C(=O)O)C(C)(C)CCC1 [all-trans-RA, all-trans-retinoic acid, reference compound]	does not saturate	–	–
CC1=C(/C=C/C(C)=C/C=C/C(C)=C/CO)C(C)(C)CCC1 [all-trans-ROL, all-trans-retinol]	–	no saturase activity	little
